According to paper PMC9133015 (Nature Communications, 2022):
Several values for one entry are separate records, joined by “and”; a condition that tells them apart may be missing. Equal entries are not always repeated.

What was measured:
DU145 cells = assay: Transcriptome-wide RNA-sequencing; type: cell-based, human; conditions: DU145, YK-2-69 3 µM 48 h vs DMSO
p-4E-BP1 (Thr37/46) = assay: Western blotting analysis of indicated proteins in PCa cells; type: cell-based, human; conditions: 48 h treatment
DYRK3 = target: T1, DYRK3 (Homo sapiens, UniProt O43781); assay: DYRKs kinase activity assay (33P-ATP, DYRKtide substrate): DYRK3; type: biochemical
T1 construct: purchased Reaction Biology Corporation (assay service)
T1 sequence (O43781 1-588): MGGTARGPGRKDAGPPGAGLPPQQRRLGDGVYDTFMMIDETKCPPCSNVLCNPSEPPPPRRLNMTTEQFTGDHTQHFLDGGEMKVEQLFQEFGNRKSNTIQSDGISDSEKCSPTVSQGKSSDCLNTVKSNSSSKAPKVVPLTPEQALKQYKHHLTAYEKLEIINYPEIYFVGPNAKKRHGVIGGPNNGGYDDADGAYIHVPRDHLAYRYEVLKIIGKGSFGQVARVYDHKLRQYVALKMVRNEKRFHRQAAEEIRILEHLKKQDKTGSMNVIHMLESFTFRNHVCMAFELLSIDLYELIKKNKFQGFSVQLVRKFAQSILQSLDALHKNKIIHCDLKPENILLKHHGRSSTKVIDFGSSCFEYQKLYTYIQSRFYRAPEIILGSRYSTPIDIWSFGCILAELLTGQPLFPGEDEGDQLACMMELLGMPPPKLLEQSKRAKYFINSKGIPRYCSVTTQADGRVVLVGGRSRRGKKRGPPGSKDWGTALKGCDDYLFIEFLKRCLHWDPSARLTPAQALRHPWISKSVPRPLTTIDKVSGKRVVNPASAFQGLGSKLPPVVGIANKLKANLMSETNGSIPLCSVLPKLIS

DYRK2 protein = target: T2, DYRK2 protein (Homo sapiens, UniProt Q92630); assay: Microscale thermophoresis binding assay; conditions: for Fnorm: triplicates
T2 construct: 6xHis (N, cleaved yes); TEV protease cleavage site (N, cleaved yes); made in house; host or cells: E. coli BL21 (DE3)
T2 sequence (Q92630 72-479 isoform Q92630-2): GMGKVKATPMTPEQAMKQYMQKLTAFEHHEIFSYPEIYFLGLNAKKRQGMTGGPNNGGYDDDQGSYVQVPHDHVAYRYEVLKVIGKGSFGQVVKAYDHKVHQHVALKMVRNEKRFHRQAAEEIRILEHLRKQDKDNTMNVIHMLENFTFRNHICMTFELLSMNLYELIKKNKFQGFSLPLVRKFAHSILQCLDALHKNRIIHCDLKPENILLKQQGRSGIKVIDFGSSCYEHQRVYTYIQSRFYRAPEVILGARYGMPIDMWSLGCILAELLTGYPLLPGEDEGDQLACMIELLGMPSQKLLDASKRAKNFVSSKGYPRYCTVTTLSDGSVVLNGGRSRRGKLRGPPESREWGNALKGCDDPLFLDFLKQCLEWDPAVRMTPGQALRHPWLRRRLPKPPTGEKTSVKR

SMILES: CCN1CCN(C(=O)c2ccc(Nc3ncc(F)c(-c4ccc5nc(N(C)C)sc5c4)n3)nc2)CC1 [YK-2-69]
- log2(fc) KLF6 (ENSG00000067082) (DU145 cells): -1
- log2(fc) MT-ND6 (ENSG00000198695) (DU145 cells): 1.099
- log2(fc) PLK2 (ENSG00000145632) (DU145 cells): -1.04
- log2(fc) TAGLN (ENSG00000149591) (DU145 cells): -2.064
- phosphorylation of 4E-BP1 (p-4E-BP1 (Thr37/46)): inhibited the phosphorylation of 4E-BP1 in a dose-dependent manner
- IC50 (DYRK3): > 1000 nM
- % Inhibition DYRK3 (DYRK3; 0.000762079 µM, duplicates): -8.00% and -1.03%
- % Inhibition DYRK3 (DYRK3; 0.00228624 µM, duplicates): -10.03% and -2.95%
- % Inhibition DYRK3 (DYRK3; 0.00685871 µM, duplicates): -8.21% and -7.66%
- % Inhibition DYRK3 (DYRK3; 0.0205761 µM, duplicates): -2.65% and -5.02%
- % Inhibition DYRK3 (DYRK3; 0.0617284 µM, duplicates): 11.61%
- inhibition at 0.0617284 µM (DYRK3; 0.0617284 µM, duplicates): 6.58%
- % Inhibition DYRK3 (DYRK3; 0.185185 µM, duplicates): 29.90%
- inhibition at 0.185185 µM (DYRK3; 0.185185 µM, duplicates): 28.2%
- % Inhibition DYRK3 (DYRK3; 0.555556 µM, duplicates): 51.81%
- inhibition at 0.555556 µM (DYRK3; 0.555556 µM, duplicates): 49.4%
- % Inhibition DYRK3 (DYRK3; 1.66667 µM, duplicates): 53.48%
- % Inhibition DYRK3 (DYRK3; 5 µM, duplicates): 56.27%
- inhibition at 5 µM (DYRK3; 5 µM, duplicates): 56.1%
- inhibition at 1.66667 µM (DYRK3; read-out: % Inhibition DYRK3, 1.66667 µM, duplicates): 50.8%
- selectivity over DYRK3 (DYRK3; vs DYRK2): more than 100 fold
- Kd (DYRK2 protein): 92 nM
- Fnorm (DYRK2 protein; Ligand Concentration 1.52588e-9 M): 967.581 ‰ and 966.546 ‰ and 966.864 ‰
- Fnorm (DYRK2 protein; Ligand Concentration 3.05176e-9 M): 966.58 ‰ and 965.007 ‰ and 967.223 ‰
- Fnorm (DYRK2 protein; Ligand Concentration 6.10352e-9 M): 966.992 ‰ and 966.91 ‰ and 966.101 ‰
- Fnorm (DYRK2 protein; Ligand Concentration 1.2207e-8 M): 967.371 ‰ and 966.328 ‰ and 967.725 ‰
- Fnorm (DYRK2 protein; Ligand Concentration 2.44141e-8 M): 967.449 ‰ and 966.053 ‰ and 966.951 ‰
- Fnorm (DYRK2 protein; Ligand Concentration 4.88281e-8 M): 966.087 ‰ and 966.251 ‰ and 967.971 ‰
- Fnorm (DYRK2 protein; Ligand Concentration 9.76563e-8 M): 964.723 ‰ and 963.783 ‰ and 964.77 ‰
- Fnorm (DYRK2 protein; Ligand Concentration 1.95313e-7 M): 965.362 ‰ and 964.006 ‰ and 962.948 ‰
- Fnorm (DYRK2 protein; Ligand Concentration 3.90625e-7 M): 961.623 ‰ and 962.98 ‰ and 964.971 ‰
- Fnorm (DYRK2 protein; Ligand Concentration 7.8125e-7 M): 963.524 ‰ and 964.437 ‰ and 962.941 ‰
- Fnorm (DYRK2 protein; Ligand Concentration 1.5625e-6 M): 963.3 ‰ and 963.031 ‰ and 962.056 ‰
- Fnorm (DYRK2 protein; Ligand Concentration 3.125e-6 M): 962.439 ‰ and 962.002 ‰ and 962.785 ‰
- Fnorm (DYRK2 protein; Ligand Concentration 6.25e-6 M): 962.791 ‰ and 963.606 ‰ and 963.319 ‰
- Fnorm (DYRK2 protein; Ligand Concentration 1.25e-5 M): 961.109 ‰ and 965.797 ‰ and 962.38 ‰
- Fnorm (DYRK2 protein; Ligand Concentration 2.5e-5 M): 962.063 ‰ and 963.029 ‰ and 959.958 ‰
- Fnorm (DYRK2 protein; Ligand Concentration 5e-5 M): 962.013 ‰ and 961.244 ‰ and 962.047 ‰
